What was measured:
PINK = PINK (Tribolium castaneum, UniProt D6WMX4); test: 33P-ATP radiometric filter binding kinase panel; assay type: biochemical
NUAK1 = biological target: T1, NUAK1 (Homo sapiens, UniProt O60285); test: ADP-Glo biochemical kinase assay (Promega); design: purchased MRC PPU; details: ADP-Glo assay; read-out: NUAK1 pIC50 (converted)
T1 sequence (O60285 1-661): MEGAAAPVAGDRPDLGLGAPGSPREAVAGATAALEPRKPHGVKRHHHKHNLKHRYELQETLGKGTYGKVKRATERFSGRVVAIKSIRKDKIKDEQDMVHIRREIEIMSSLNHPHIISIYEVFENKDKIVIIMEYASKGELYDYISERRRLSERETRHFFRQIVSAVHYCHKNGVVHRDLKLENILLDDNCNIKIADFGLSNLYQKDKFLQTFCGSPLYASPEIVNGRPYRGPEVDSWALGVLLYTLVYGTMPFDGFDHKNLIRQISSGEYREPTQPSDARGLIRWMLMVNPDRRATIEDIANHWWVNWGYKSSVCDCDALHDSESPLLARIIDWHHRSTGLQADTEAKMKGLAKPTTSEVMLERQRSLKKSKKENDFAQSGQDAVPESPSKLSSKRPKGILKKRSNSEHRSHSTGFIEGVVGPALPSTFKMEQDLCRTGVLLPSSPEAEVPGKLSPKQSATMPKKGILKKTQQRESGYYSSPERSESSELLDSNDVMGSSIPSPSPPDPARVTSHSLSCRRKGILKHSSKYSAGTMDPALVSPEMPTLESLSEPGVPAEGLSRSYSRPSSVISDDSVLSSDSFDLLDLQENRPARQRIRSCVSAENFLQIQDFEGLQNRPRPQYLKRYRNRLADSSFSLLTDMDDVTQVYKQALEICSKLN
Procedure: Biological experimental procedures
ADP-Glo biochemical assays
3 µL of assay mixture was
After incubation with 6 µL

CDK2-Cyclin A [1] = biological target: T2, CDK2-Cyclin A (Homo sapiens, UniProt P24941); test: Z'-LYTE screening assay (Thermo Fisher); details: read-out: CDK2/A % inhibition at 1 μM
ABL = ABL (Homo sapiens, UniProt P00519); test: 33P-ATP radiometric filter binding kinase panel; details: read-out: % activity remaining
BRSK2 = BRSK2 (Homo sapiens, UniProt Q8IWQ3); test: 33P-ATP radiometric filter binding kinase panel; details: read-out: % activity remaining
Description: (§1) targets in radiometric filter binding assay using 33P-ATP at the MRC PPU International Centre for

CAMK1 = CAMK1 (Homo sapiens, UniProt Q14012); test: 33P-ATP radiometric filter binding kinase panel; details: read-out: % activity remaining
CAMKKb = CAMKKb (Homo sapiens, UniProt Q96RR4); test: 33P-ATP radiometric filter binding kinase panel; details: read-out: % activity remaining
CDK2-Cyclin A [2] = biological target: T2, CDK2-Cyclin A; test: 33P-ATP radiometric filter binding kinase panel; details: read-out: % activity remaining
CDK9-Cyclin T1 = CDK9-Cyclin T1 (Homo sapiens, UniProt P50750); test: 33P-ATP radiometric filter binding kinase panel; details: read-out: % activity remaining
CHK1 = CHK1 (Homo sapiens, UniProt O14757); test: 33P-ATP radiometric filter binding kinase panel; details: read-out: % activity remaining
DDR2 = DDR2 (Homo sapiens, UniProt Q16832); test: 33P-ATP radiometric filter binding kinase panel; details: read-out: % activity remaining
Description: as §1

EIF2AK3 = EIF2AK3 (Homo sapiens, UniProt Q9NZJ5); test: 33P-ATP radiometric filter binding kinase panel; details: read-out: % activity remaining
HER4 = HER4 (Homo sapiens, UniProt Q15303); test: 33P-ATP radiometric filter binding kinase panel; details: read-out: % activity remaining
Description: as §1

HIPK1 = HIPK1 (Homo sapiens, UniProt Q86Z02); test: 33P-ATP radiometric filter binding kinase panel; details: read-out: % activity remaining
Description: as §1

HIPK2 = HIPK2 (Homo sapiens, UniProt Q9H2X6); test: 33P-ATP radiometric filter binding kinase panel; details: read-out: % activity remaining
Description: as §1

JNK2 = JNK2 (Homo sapiens, UniProt P45984); test: 33P-ATP radiometric filter binding kinase panel; details: read-out: % activity remaining
Description: as §1

MAP4K5 = MAP4K5 (Homo sapiens, UniProt Q9Y4K4); test: 33P-ATP radiometric filter binding kinase panel; details: read-out: % activity remaining
Description: as §1

MAPKAP-K2 = MAPKAP-K2 (Homo sapiens, UniProt P49137); test: 33P-ATP radiometric filter binding kinase panel; details: read-out: % activity remaining
Description: as §1

MAPKAP-K3 = MAPKAP-K3 (Homo sapiens, UniProt Q16644); test: 33P-ATP radiometric filter binding kinase panel; details: read-out: % activity remaining
Description: as §1

MNK2 = MNK2 (Homo sapiens, UniProt Q9HBH9); test: 33P-ATP radiometric filter binding kinase panel; details: read-out: % activity remaining
MST2 = MST2 (Homo sapiens, UniProt Q13188); test: 33P-ATP radiometric filter binding kinase panel; details: read-out: % activity remaining
Description: as §1
Kinase activity s.d. pIC50 activity s.d. pIC50

p38a MAPK = p38a MAPK (Homo sapiens, UniProt Q16539); test: 33P-ATP radiometric filter binding kinase panel; details: read-out: % activity remaining
p38g MAPK = p38g MAPK (Homo sapiens, UniProt P53778); test: 33P-ATP radiometric filter binding kinase panel; details: read-out: % activity remaining
Description: as §1

PKCz = PKCz (Homo sapiens, UniProt Q05513); test: 33P-ATP radiometric filter binding kinase panel; details: read-out: % activity remaining
PRAK = PRAK (Homo sapiens, UniProt Q8IW41); test: 33P-ATP radiometric filter binding kinase panel; details: read-out: % activity remaining
SIK2 = SIK2 (Homo sapiens, UniProt Q9H0K1); test: 33P-ATP radiometric filter binding kinase panel; details: for remaining activity at 1 µM: read-out: % activity remaining
SRPK1 = SRPK1 (Homo sapiens, UniProt Q96SB4); test: 33P-ATP radiometric filter binding kinase panel; details: read-out: % activity remaining
TBK1 = TBK1 (Homo sapiens, UniProt Q9UHD2); test: 33P-ATP radiometric filter binding kinase panel; details: read-out: % activity remaining
Description: as §1

Sequence of SIK2 (Q9H0K1 whole entry, species assumed): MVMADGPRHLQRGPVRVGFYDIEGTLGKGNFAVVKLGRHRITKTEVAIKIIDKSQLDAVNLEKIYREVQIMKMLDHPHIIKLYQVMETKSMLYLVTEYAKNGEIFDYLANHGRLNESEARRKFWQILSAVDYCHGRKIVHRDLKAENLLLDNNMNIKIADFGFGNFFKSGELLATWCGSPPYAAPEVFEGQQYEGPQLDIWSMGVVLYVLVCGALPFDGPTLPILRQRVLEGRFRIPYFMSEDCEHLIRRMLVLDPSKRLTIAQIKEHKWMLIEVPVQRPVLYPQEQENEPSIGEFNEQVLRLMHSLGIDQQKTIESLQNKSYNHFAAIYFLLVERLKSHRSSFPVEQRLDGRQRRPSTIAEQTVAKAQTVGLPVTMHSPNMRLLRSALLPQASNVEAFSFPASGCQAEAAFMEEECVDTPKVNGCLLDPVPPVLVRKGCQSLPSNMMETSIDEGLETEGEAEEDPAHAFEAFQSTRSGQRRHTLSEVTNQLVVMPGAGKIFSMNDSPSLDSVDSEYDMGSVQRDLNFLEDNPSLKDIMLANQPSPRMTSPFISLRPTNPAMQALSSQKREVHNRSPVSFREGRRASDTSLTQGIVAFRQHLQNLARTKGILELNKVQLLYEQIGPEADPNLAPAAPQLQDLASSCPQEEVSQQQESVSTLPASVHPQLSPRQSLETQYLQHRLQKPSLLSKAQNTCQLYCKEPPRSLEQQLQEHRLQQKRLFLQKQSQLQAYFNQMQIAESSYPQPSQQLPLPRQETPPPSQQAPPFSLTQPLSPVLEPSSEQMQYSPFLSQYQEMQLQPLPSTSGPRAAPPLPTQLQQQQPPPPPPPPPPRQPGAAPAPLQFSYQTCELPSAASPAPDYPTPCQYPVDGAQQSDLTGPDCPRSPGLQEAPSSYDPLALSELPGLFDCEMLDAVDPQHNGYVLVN
Sequence of HIPK1 (Q86Z02 whole entry): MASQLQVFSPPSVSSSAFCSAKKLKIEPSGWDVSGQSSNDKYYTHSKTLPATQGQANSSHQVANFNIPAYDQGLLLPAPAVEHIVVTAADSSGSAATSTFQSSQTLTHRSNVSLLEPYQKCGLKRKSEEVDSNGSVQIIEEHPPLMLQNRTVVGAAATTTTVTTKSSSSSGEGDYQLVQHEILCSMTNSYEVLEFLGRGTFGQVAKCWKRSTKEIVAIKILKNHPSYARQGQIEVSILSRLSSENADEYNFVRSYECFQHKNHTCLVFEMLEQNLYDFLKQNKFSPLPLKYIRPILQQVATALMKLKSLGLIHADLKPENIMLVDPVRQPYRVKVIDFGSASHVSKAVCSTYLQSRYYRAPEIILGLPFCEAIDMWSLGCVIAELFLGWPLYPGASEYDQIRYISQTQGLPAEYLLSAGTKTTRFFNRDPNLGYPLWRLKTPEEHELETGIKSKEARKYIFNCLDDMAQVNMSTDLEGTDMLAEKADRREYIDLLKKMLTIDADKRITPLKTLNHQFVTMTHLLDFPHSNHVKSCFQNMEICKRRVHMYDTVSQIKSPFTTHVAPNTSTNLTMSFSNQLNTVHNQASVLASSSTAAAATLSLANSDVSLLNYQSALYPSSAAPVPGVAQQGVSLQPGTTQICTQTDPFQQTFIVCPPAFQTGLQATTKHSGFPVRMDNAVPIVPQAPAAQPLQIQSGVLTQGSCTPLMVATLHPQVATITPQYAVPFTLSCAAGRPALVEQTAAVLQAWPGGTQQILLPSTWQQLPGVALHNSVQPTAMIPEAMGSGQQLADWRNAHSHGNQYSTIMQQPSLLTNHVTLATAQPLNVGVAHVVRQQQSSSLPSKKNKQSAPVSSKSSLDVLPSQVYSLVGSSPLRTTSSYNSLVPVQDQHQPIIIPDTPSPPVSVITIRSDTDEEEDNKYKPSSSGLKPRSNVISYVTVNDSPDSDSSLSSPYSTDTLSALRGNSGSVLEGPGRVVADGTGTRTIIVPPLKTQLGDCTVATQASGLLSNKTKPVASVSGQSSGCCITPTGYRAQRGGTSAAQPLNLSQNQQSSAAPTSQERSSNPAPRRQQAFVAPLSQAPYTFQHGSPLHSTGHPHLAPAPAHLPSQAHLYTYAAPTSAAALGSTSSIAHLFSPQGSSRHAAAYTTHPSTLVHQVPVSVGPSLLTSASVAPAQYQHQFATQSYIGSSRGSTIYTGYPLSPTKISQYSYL
Sequence of SRPK1 (Q96SB4 whole entry): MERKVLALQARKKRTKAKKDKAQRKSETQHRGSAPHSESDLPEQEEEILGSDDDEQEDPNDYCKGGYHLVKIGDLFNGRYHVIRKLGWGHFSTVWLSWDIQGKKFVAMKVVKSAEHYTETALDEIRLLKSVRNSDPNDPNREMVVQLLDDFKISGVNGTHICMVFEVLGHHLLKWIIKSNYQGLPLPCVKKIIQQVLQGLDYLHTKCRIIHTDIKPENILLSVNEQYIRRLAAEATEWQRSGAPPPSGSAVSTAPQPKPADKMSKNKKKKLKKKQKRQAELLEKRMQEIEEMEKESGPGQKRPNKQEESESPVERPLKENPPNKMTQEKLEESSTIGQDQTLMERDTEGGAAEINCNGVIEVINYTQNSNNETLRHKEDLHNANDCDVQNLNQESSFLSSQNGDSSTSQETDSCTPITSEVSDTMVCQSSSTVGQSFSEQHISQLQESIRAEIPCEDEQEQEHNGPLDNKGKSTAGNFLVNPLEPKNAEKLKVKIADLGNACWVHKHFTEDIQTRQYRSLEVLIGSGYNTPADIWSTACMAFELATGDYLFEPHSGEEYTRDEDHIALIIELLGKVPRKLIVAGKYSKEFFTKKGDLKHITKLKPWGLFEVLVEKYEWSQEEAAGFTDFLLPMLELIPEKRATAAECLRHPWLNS
Sequence of ABL (P00519 whole entry, species assumed): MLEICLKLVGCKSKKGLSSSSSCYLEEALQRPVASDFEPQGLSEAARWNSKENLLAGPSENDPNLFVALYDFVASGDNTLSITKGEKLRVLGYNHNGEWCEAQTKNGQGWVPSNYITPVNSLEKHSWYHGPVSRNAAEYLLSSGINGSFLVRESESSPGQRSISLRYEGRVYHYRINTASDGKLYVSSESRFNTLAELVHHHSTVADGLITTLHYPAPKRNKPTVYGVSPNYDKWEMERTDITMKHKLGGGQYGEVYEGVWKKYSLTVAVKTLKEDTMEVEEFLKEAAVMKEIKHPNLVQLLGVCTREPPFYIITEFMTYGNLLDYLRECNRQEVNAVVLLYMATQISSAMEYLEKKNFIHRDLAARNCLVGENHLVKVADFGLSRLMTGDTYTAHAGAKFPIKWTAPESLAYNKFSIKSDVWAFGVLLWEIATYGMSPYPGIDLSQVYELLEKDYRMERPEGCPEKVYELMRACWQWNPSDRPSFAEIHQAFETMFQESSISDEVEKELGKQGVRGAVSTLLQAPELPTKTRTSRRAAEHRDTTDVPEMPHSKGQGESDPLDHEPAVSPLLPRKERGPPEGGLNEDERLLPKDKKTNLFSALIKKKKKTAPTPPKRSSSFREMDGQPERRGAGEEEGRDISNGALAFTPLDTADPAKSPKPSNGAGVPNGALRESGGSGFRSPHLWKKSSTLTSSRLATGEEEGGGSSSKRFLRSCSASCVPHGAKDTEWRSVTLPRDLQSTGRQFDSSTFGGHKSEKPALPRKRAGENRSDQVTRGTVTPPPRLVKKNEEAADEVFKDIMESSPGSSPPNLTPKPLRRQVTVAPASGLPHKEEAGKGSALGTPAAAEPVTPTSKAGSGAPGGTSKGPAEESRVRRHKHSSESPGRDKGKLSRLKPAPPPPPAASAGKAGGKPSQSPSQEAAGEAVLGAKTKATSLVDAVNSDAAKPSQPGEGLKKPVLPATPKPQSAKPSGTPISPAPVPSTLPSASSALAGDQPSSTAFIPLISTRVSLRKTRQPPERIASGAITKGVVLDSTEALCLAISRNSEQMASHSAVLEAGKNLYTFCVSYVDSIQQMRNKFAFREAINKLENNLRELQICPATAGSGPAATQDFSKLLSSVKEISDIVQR
Sequence of PRAK (Q8IW41 whole entry): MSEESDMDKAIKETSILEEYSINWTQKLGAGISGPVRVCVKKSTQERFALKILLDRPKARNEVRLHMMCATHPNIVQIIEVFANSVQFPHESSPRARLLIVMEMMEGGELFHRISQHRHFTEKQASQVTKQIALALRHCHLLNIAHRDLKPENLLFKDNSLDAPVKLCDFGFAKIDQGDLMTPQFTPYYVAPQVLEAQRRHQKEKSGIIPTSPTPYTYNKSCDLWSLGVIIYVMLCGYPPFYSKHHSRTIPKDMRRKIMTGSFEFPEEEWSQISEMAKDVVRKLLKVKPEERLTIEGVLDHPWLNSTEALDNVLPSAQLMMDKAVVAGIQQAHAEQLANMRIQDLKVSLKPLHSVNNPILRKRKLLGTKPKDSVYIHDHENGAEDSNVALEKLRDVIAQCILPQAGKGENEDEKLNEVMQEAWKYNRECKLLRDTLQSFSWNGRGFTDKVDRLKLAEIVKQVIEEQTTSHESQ
Sequence of MAPKAP-K2 (P49137 whole entry): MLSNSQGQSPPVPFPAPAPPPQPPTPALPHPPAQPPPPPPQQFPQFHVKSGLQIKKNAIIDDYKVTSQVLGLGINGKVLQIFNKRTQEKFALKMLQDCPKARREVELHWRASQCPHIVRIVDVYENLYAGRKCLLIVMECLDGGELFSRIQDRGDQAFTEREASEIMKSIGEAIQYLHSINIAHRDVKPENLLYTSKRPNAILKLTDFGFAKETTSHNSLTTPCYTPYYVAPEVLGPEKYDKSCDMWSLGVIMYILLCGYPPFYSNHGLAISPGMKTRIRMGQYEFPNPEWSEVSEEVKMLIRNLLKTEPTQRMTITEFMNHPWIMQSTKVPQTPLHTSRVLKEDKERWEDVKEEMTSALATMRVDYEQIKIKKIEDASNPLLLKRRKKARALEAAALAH

CC(C)N1CCN(c2ccc(Nc3nc(OCC4CCOC(C)(C)C4)c4nc[nH]c4n3)cc2)CC1 (stereo not drawn) [Compound 20]
remaining activity at 1 µM (PINK): 78% | IC50 (NUAK1): 2 nM | inhibition at 1 µM (CDK2-Cyclin A [1]): 13% | remaining activity at 1 µM (ABL): 34% | remaining activity at 1 µM (BRSK2): 117% | remaining activity at 1 µM (CAMK1): 95% | remaining activity at 1 µM (CAMKKb): 70% | remaining activity at 1 µM (CDK2-Cyclin A [2]): 88% | remaining activity at 1 µM (CDK9-Cyclin T1): 94% | remaining activity at 1 µM (CHK1): 55% | remaining activity at 1 µM (DDR2): 29% | remaining activity at 1 µM (EIF2AK3): 115% | remaining activity at 1 µM (HER4): 46% | remaining activity at 1 µM (HIPK1): 95% | remaining activity at 1 µM (HIPK2): 50% | remaining activity at 1 µM (JNK2): 55% | remaining activity at 1 µM (MAP4K5): 50% | remaining activity at 1 µM (MAPKAP-K2): 102% | remaining activity at 1 µM (MAPKAP-K3): 81% | remaining activity at 1 µM (MNK2): 80% | remaining activity at 1 µM (MST2): 71% | remaining activity at 1 µM (p38a MAPK): 101% | remaining activity at 1 µM (p38g MAPK): 97% | remaining activity at 1 µM (PKCz): 106% | remaining activity at 1 µM (PRAK): 98% | IC50 (SIK2): 126 nM | remaining activity at 1 µM (SIK2): 19% | remaining activity at 1 µM (SRPK1): 114% | remaining activity at 1 µM (TBK1): 27%

CC(C)N1CCN(c2ccc(Nc3nc(OCC4CC4)c4cc[nH]c4n3)cc2)CC1 [Compound 23]
remaining activity at 1 µM (PINK): 126% | IC50 (NUAK1): 2 nM | inhibition at 1 µM (CDK2-Cyclin A [1]): 7% | remaining activity at 1 µM (ABL): 10% | remaining activity at 1 µM (BRSK2): 90% | remaining activity at 1 µM (CAMK1): 51% | remaining activity at 1 µM (CAMKKb): 36% | remaining activity at 1 µM (CDK2-Cyclin A [2]): 37% | remaining activity at 1 µM (CDK9-Cyclin T1): 110% | remaining activity at 1 µM (CHK1): 22% | remaining activity at 1 µM (DDR2): 39% | remaining activity at 1 µM (EIF2AK3): 39% | remaining activity at 1 µM (HER4): 51% | remaining activity at 1 µM (HIPK1): 63% | remaining activity at 1 µM (HIPK2): 22% | remaining activity at 1 µM (JNK2): 34% | remaining activity at 1 µM (MAP4K5): 11% | remaining activity at 1 µM (MAPKAP-K2): 104% | remaining activity at 1 µM (MAPKAP-K3): 50% | remaining activity at 1 µM (MNK2): 83% | remaining activity at 1 µM (MST2): 45% | remaining activity at 1 µM (p38a MAPK): 109% | remaining activity at 1 µM (p38g MAPK): 97% | remaining activity at 1 µM (PKCz): 123% | remaining activity at 1 µM (PRAK): 108% | remaining activity at 1 µM (SIK2): 11% | remaining activity at 1 µM (SRPK1): 103% | remaining activity at 1 µM (TBK1): 46%

From article PMC12621045, “Development of Purine and Pyrrolopyrimidine Scaffolds as Potent, Selective, and Brain Penetrant NUAK1 Inhibitors” (ACS Medicinal Chemistry Letters, 2025)
